# Patent US20120107417A1, “Effective Antitumor Treatments” (PHARMA MAR, S.A., priority 2000, published 2012)
# Legend:
# [1] = system: human rabdomyosarcoma zenograft TE671; test: ET-743/doxorubicin against TE671 xenograft in athymic (nude) mice; type: in vivo
# Description: In vivo: Single iv treatments (ET-743, 0.1 mg/Kg; DOX, 10 mg/Kg) were administered in nude mice when xenograft tumors weighed approximately 100 mg.
# [2] = system: murine fibrosarcoma UV2237; test: ET-743/doxorubicin against murine fibrosarcoma UV2237 in mice; type: in vivo; conditions: alone or combination
# UV2237/ADR = test: ET-743/doxorubicin against mdr-resistant subline UV2237/ADR in mice; type: in vivo, murine; conditions: alone or combination
# HT-1080 = test: SRB cytotoxicity assay and Chou-Talalay combination index, HT-1080; type: cell-based, human; conditions: HT 1080 fibrosarcoma cell line; read-out: IC50
# Description: (§1) Soft tissue sarcoma cell lines, HT-1080 and HS-18 were maintained as monolayer cultures in RP<I-1640 containing 10% fetal bovine serum.
# (§2) Cytotoxicity to drugs was determined by SRB cytotoxicity assay carried out in 96-well microtiter plates as described. Cells were plated in duplicate wells (5000 cells/well) and exposed to drugs at different concentrations. Cells were fixed with 50% TCA solution for 1 h and 0.4% SRB (Sigma) was added to each well. After a 30 min incubation, the plate were washed with 1% acetic acid and read at 570 nm on a Biowhitaker microplate reader 2001. The wells with cells containing no drugs and with medium plus drugs but no cells were used as positive and negative controls, respectively.
# (§3) Cells were seeded into 96-well plates, as described previously. Cells were treated with seven different concentrations of the single drugs or combinations mixture at 1:100 (ET-743: the other drugs) molar ratio. After 72 h exposure, growth inhibition was measured using the SRB assay.
# (§4) Using the same experimental setup described above, we exposed cells to three different concentrations of drugs which represents the IC25, IC50, IC75 of ET-743, DXR, TMTX and paclitaxel, respectively. After 24 hours pre-treatment with ET743 or the combination drug, the second drugs were added to the respective wells for 48 h. Growth inhibition was determined using the SRB assay.)
# (§5) The CI was calculated by the Chou-Talalay equation, which takes into account both potency (Dm or IC50) and the shape of the dose effect curve (the m value). The general equation for the classic isobologram (CI=1) is given by:
# (§6) CI=(D)1/(Dx)1+(D)2/(Dx)2 (A)
# HS-18 = test: SRB cytotoxicity assay and Chou-Talalay combination index, HS-18; type: cell-based, human; conditions: HS-18 liposarcoma cell line; read-out: IC50
# Description: as §1, §2, §3, §4, §5, §6
# HT-1080 cells = test: Cell cycle analysis (propidium iodide, FACS), HT-1080; type: cell-based, human
# Description: (§7) Exponentially growth cells were treated with or without drugs for several hours. Cells were then collected and fixed with ice-cold 70% methanol. DNA was stained with propidium iodide as described previously. Ten thousand stained cells were analyzed on a Becton Dickinson fluorescence-activated cell sorter (FACS).
# HS-18 cells = test: Cell cycle analysis (propidium iodide, FACS), HS-18; type: cell-based, human
# Description: as §7
# TE 671 cells = test: Clonogenic assay ET-743/DOX, TE 671; type: cell-based, human; conditions: 1 hr exposures, isobologram analysis and Combination Index
# Description: In vitro: The effect of each drug or combination after 1 hr exposures was evaluated by clonogenic assay.
# sc transplanted TE671 = test: ET-743/DDP against sc transplanted TE671; type: in vivo, human; conditions: single drugs at MTD or combination
# ovarian 1 A 9 tumor = test: ET-743/DDP against ovarian 1A9 tumor in vivo; design: species or system human; conditions: single agents
# From the text: The ovarian 1 A 9 tumor that is normally resistant to both ET-743 and DDP as single agents, in combination produced a tumor growth inhibition greater than 50%.
# [3] = system: human ovarian carcinoma HOC8; test: ET-743/DDP against orthotopically transplanted HOC8; type: in vivo; conditions: HOC8 orthotopic, peritoneal nodules with ascites; single agents
# chondrosarcoma (CSHA) = test: Hollow fiber (HF) model, chondrosarcoma; type: in vivo
# From the text: (§8) Osteosarcoma xenografts produced similar results of 17% vs. 43%. […] The one exception was in NSCL were Et743 alone was not active (62% T/C) but DPP followed by Et743 produced CR (<1% T/C). In renal xenografts Et743 alone was very active (22% T/C) but Et743 followed by VINB also produced CR (<1% T/C). Separate studies are underway with other standard agents in breast, renal, melanoma and gastric tumor xenografts.
# fibrosarcoma (SW684) = test: Hollow fiber (HF) model, fibrosarcoma; type: in vivo; conditions: DOX 8 mg/Kg 1 hr pre-Et743 0.2 mg/Kg vs Et743 alone, qdx5
# From the text: as §8
# osteosarcoma (OSA-FH) [4] = test: Hollow fiber (HF) model, osteosarcoma; type: in vivo
# From the text: as §8
# osteosarcoma (OSA-FH) [5] = test: Osteosarcoma xenografts; type: in vivo; conditions: DOX 1 hr pre-Et743 vs Et743 alone
# From the text: as §8
# ovary (MRI-H-1834) = test: Hollow fiber (HF) model, ovary; type: in vivo; conditions: Et743 0.2 mg/Kg pre-DDP 12 mg/Kg vs Et743 alone
# From the text: as §8
# xenograft = test: Xenograft, Et743 pre-DDP (tumor not named); type: in vivo; conditions: xenograft data; Et743 pre-DDP vs Et743 alone
# From the text: as §8
# NSCL (LX-1) = test: NSCL tumor, Et743 and DDP; type: in vivo; conditions: Et743 alone vs DDP followed by Et743
# From the text: as §8
# renal (MRI-H-121) = test: Renal xenografts, Et743 and VINB; type: in vivo; conditions: Et743 alone vs Et743 followed by VINB 6 mg/Kg
# From the text: as §8
# [6] = Plasma levels of ET-743 in rats pretreated with dex; type: in vivo; conditions: rats given dex 50 mg/kg daily for 3 days prior to ET-743, compared to ET-743 alone
# Description: (§9) Plasma levels of ET-743 in rats which received dex (50 mg/kg) daily for 3 days prior to ET-743 were not decreased compared to those in rats on ET-743 alone. Furthermore, the activity of ET-743 against B16 melanoma implanted into mice was not impeded by dexamethasone.
# B16 melanoma = test: Activity of ET-743 against B16 melanoma with dexamethasone; type: in vivo; conditions: mice
# Description: as §9
# liver = conditions: rat
# Description: In the light of the antiinflammatory activity of dex, we investigated its effect on liver damage induced by ET-743 in the rat. Female Wistar rats received a single iv dose of ET-743 (40 μg/kg). Some rats were pretreated with a single oral dose of dex either at 1, 5, 10 or 20 mg/kg 24 h prior to ET-743 treatment. Liver pathology and plasma concentrations of alkaline phophatase (ALP), aspartate aminotransferase (GOT) and total bilirubin (TB) were assessed up to 3 days post ET-743 administration. Conventional histological sections of the livers were examined by light microscopy.
# [7] = system: mismatch repair (MMR) deficient cells; conditions: MMR deficient vs proficient cells; previous studies; cited from earlier work
# NER deficient cells = NER deficient cells very sensitive to cisplatin; previous studies; cited from earlier work
# melanoma (MEXF 989) = conditions: Hendriks et al. 1999; cited from earlier work
# NSCL (LXFL 529) = conditions: Hendriks et al. 1999; cited from earlier work
# ovary (HOC 22) = conditions: Hendriks et al. 1999; cited from earlier work
# breast carcinoma (MX-1) = conditions: Hendriks et al. 1999; cited from earlier work
# [8] = single i.v. treatment at tumor approx. 100 mg, drug alone (ET-743 0.1 mg/kg; Dx 10 mg/kg)
# [9] = 24 h after treatment with approximate IC50 dose
# [10] = 72 h after treatment with approximate IC50 dose
# [11] = DOX 8 mg/Kg 1 hr pre-Et743 0.2 mg/Kg vs Et743 alone, qdx5
# [12] = ET-743 40 μg/kg iv alone, after 2 days
substance,measurement,setting,value
Ecteinascidin 743 [ET-743],antitumor effect in words,"[1]; TE671 in mice, alone or combination",inactive or marginally active
same,Log 10 Cell Kill (LCK),[1]; [8],0.132
same,tumor weight inhibition (TWI),[1]; [8],46%
same,antitumor effect in words,[2],effective
same,antitumor effect in words,UV2237/ADR,inactive or marginally active
same,IC50,HT-1080,0.01 nM
same,IC50,HS-18,0.27 nM
same,% G1,HT-1080 cells; [9],42.6%
same,% G2-M,HT-1080 cells; [9],21.3%
same,% S phase,HT-1080 cells; [9],36.1%
same,% G1,HT-1080 cells; [10],83.1%
same,% G2-M,HT-1080 cells; [10],6.7%
same,% S phase,HT-1080 cells; [10],10.2%
same,% G1,HS-18 cells; [9],32.4%
same,% G2-M,HS-18 cells; [9],20.0%
same,% S phase,HS-18 cells; [9],47.6%
same,% G1,HS-18 cells; [10],86.7%
same,% G2-M,HS-18 cells; [10],4.9%
same,% S phase,HS-18 cells; [10],8.4%
same,anti-tumor activity / interaction in clonogenic assay,TE 671 cells,showed anti-tumor activity
same,antitumor effect in words,sc transplanted TE671,partially sensitive
same,sensitivity of tumor to single agent,ovarian 1 A 9 tumor,resistant
same,sensitivity of tumor to single agent,[3],resistant
same,T/C,chondrosarcoma (CSHA); [11],10%
same,T/C,chondrosarcoma (CSHA); Et743 0.2 mg/Kg pre-DDP 12 mg/Kg vs Et743 alone,19%
same,T/C,fibrosarcoma (SW684),48%
same,T/C,osteosarcoma (OSA-FH) [4]; [11],34%
same,T/C,"osteosarcoma (OSA-FH) [4]; Et743 pre-DDP and Et743 alone, equivalent activities",36%
same,T/C,osteosarcoma (OSA-FH) [5],43%
same,T/C,ovary (MRI-H-1834),100%
same,T/C,xenograft,66%
same,T/C,NSCL (LX-1),62%
same,T/C,renal (MRI-H-121),22%
same,Plasma levels of ET-743,[6],not decreased
same,activity of ET-743 against B16 melanoma,B16 melanoma,not impeded
same,Plasma levels of ALP,liver; [12],significantly elevated
same,Plasma levels of GOT,liver; [12],significantly elevated
same,plasma TB concentrations,"liver; ET-743 40 μg/kg iv alone, commenced on day 2",dramatic increase
same,liver pathology,"liver; ET-743 40 μg/kg single iv alone, 2 days post treatment","bile duct inflammation, striking degenerative changes in biliary epithelial cells and zones of hepatic necrosis"
same,sensitivity to ET-743 compared with proficient cells,[7],equally sensitive
same,times less sensitive to ET-743,NER deficient cells,6-8 times
same,"in vivo tumor growth inhibition, single agent",melanoma (MEXF 989),complete remissions
same,"in vivo tumor growth inhibition, single agent",NSCL (LXFL 529),complete remissions
same,"in vivo tumor growth inhibition, single agent",ovary (HOC 22),complete remissions
same,"in vivo tumor growth inhibition, single agent",breast carcinoma (MX-1),complete remissions
